Ends that are not written are not given here.
Tests used:
JAR4 mAb [1] = experiment: […] of phage library clones; format: binding, murine; details: JAR4 coated at 1 μg/ml, cleared phage supernatant, absorbance at 450 nm
Protocol: […]—Aliquots in 96 wells ELISA plates 100 μl per well of JAR4 mAb were diluted (1 μg/ml) in 50 mM NaHC03, 0.02% (w/v) NaN3, pH 9.6 and incubated 3 hrs at 37° C. or overnight at 4° C. After washing 8 times with 1×PBS containing 0.05% (v/v) TWEEN 20), 200 μl of blocking buffer (PBS, 0.05% TWEEN 20, 5% non-fat dry milk) was added and incubated for 1 hr at 37° C. The wash was discarded and a mixture of 100 μl cleared phage supernatant and 100 μl blocking buffer was added, to the plate and incubated for 3 hrs at 37° C. or overnight at 4° C. After washing 8 times with 1×PBS containing 0.05% (v/v) TWEEN 20), and anti-M13 peroxidase conjugate antibody (Amersham Biosciences, Buckinghamshire, UK) was added at a dilution of […] in blocking buffer (100 μl/well) and incubated for 1 h at 37° C. After further washing, antibody binding was detected by adding TMB substrate, incubated for 45 min at room temperature and stopped with […] of 1 M H2SO4 and reading absorbance at 450 nm.
(§1) In order to identify peptides useful in eliciting antibodies having the eptitope-binding properties of the JAR 4 mAb, libraries of filamentous bacteriophage containing random peptides (9-mers and 12-mers) fused to protein VIII were screened using the JAR 4 mAb as described above. Phage eluted in the final step were used to infect host bacteria, from which the phagemids were collected and the relevant DNA sequence amplified by PCR and sequenced to identify the peptides that interacted with JAR 4 mAb. The relative binding affinity of the peptide of the isolated phage was determined by both […] and […], as described above.

JAR4 mAb [2] = experiment: […] of phage library clones; format: binding, murine; details: phage captured by anti-pIII mAb, JAR4 detection, absorbance at 405 nm
Protocol: —Ninety-six wells plates were coated o.n. at 4° C. with 100 μl per well of a rat anti-pili (coat protein III) monoclonal antibody (concentration 1 mg/ml) in 50 mM NaHC03, 0.02% (w/v) NaN3, pH 9.6, and washed 8 times with TBST (50 mM Tris/Cl, 150 mM NaCl, pH 7.5, 0.05% (v/v) TWEEN 20). One hundred μl per well of cleared phage supernatant was added. After washing as above and incubation with antibody (concentration 1 mg/ml) in blocking buffer (5% (w/v) non-fat dry milk, 0.05% TWEEN 20 in PBS), and washing, the binding of the monoclonal antibody was detected by alkaline-phosphatase conjugated goat anti-mouse IgG antibody (Sigma, dilution 1:5000) using p-nitrophenyl phosphate substrate tablets (Sigma).
as §1

anti-fHbp JAR 5 = experiment: Direct binding ELISA of mAb to KLH-conjugated peptides; parameters: species or system murine; details: for mAb Reactivity JAR 5: KLH-conjugated peptide coated at 2 μg/ml; for binding to control mAb anti-fHbp JAR 5: KLH-conjugated peptides, in words
Protocol: (§2) The ability of anti-fHbp mAb JAR 4 to bind to the KLH-conjugated peptides was determined by a direct binding ELISA. ELISA plates were coated with 100 μl per well of a 2 μg/ml (peptide concentration) solution at 4° C. overnight. The following morning, the plates were washed and then blocked with PBS containing 1% BSA. The plates were washed and incubated with serial dilutions of mAb JAR 4 or, as a control, anti-fHbp JAR 5 or anti-PorA P1.2 mAb. After incubation (1 hour at room temperature), the plates were washed and incubated with anti-mouse IgG conjugated either with alkaline phosphatase or IRDye 800CW (1:1000). The alkaline phosphatase was detected at 420 nm wavelength after 30 min incubation with phosphatase substrate (1 mg/ml) and the IRDye was detected at 800 nm wavelength.

anti-fHbp mAb JAR 4 = experiment: as above; parameters: species or system murine; details: for mAb Reactivity JAR 4: KLH-conjugated peptide coated at 2 μg/ml; for reactivity with JAR 4 by ELISA: KLH-conjugated peptides, in words
Protocol: as §2

anti-PorA P1.2 mAb = experiment: as above; details: KLH-conjugated peptide coated at 2 μg/ml
Protocol: as §2

JAR 4 = experiment: ELISA binding of mAb to site-specific mutant recombinant v.1 fHbp; parameters: species or system murine; details: v.1 fHbp (gene from MC58) alanine mutants
Protocol: Site-specific mutagenesis was used to test the role of amino acid residues involved in the JAR 4 anti-fHbp mAb epitope. Mutagenesis was performed using the QuikChange II kit (Stratagene) using 10 ng of plasmid template and the manufacturer's protocols. For testing residues putatively involved in mAb epitopes, mutagenesis reactions were performed on pET21-based plasmids encoding a wild-type fHbp gene. Site-specific mutagenesis was used to introduce the H26A and K27A substitution into the pET21 plasmid encoding v.1 fHbp from MC58. Mutant fHbp genes were confirmed by DNA sequencing as described for the wild-type plasmids, above.
Site-directed mutagenesis of residues 25, 26 and 27 was performed, each of which was individually changed to alanine in fHbp from the v.1 group (gene from MC58). These mutants were created using the non-signal containing sequence from strain MC58 (MVAAD . . . GLAAKQ) (SEQ ID NO:73), and are referred to as D25A, H26A and K27A, respectively. The amino acid sequences of the portions of the A domains of these mutants is provided in FIG. 7, Panel A. Results of the binding experiment between mutated fHbp and the various JAR mAbs are shown in FIG. 6.

Molecule | PHAGELISA (JAR4 mAb [1]) | SEPHELISA (JAR4 mAb [2]) | further results
1 (HDHKLEGTE) [Clone 1] | +++ (O.D. from 1 to 2) | ++++ (O.D. from 2 to 3.5) | –
11 (LEWCGFSRCEVG) [Clone 11] | + (O.D. from 0.15 to 0.5) | + (O.D. from 0.15 to 0.5) | –
ALTAPLDHKDKGLQSDPAKC (also: conjugated to KLH) [JAR 4 Native, reference compound] | – | – | mAb Reactivity JAR 5 (anti-fHbp JAR 5): − (no detectable binding at 50 μg/ml); mAb Reactivity JAR 4 (anti-fHbp mAb JAR 4): − (no detectable binding at 50 μg/ml)
6 (FHDHKTANQ) [Clone 6] | + (O.D. from 0.15 to 0.5) | ++ (O.D. from 0.5 to 1) | –
9 (NDERQMSDWYRA) [Clone 9] | + (O.D. from 0.15 to 0.5) | + (O.D. from 0.15 to 0.5) | –
5 (GCMGYDHRSGCV) [Clone 5] | + (O.D. from 0.15 to 0.5) | ++ (O.D. from 0.5 to 1) | –
2 (CGGVYDDKTGCA) [Clone 2] | ++ (O.D. from 0.5 to 1) | ++++ (O.D. from 2 to 3.5) | –
4 (WTLAVFDHKAQT) [Clone 4] | +++ (O.D. from 1 to 2) | +++ (O.D. from 1 to 2) | –
10 (HVHRGSQGGQRQ) [Clone 10] | + (O.D. from 0.15 to 0.5) | + (O.D. from 0.15 to 0.5) | –
7 (WRWCGFERCPEG) [Clone 7] | + (O.D. from 0.15 to 0.5) | ++ (O.D. from 0.5 to 1) | –
16 (HDHKHGFQEPAS) [Clone 16] | + (O.D. from 0.15 to 0.5) | + (O.D. from 0.15 to 0.5) | –
17 (SDWGWGGRAEQH) [Clone 17] | + (O.D. from 0.15 to 0.5) | + (O.D. from 0.15 to 0.5) | –
AEGEFWTLAVFDHKAQTGDPAKC (also: conjugated to KLH) [JAR 4 Phage 2, synthetic peptide conjugated to keyhole limpet hemocyanin (KLH)] | – | – | mAb Reactivity JAR 4 (anti-fHbp mAb JAR 4): ++ (50% of maximal binding at < 1 μg/ml); reactivity with JAR 4 by ELISA (anti-fHbp mAb JAR 4): reacted; mAb Reactivity P1.2 (anti-PorA P1.2 mAb): − (no detectable binding at 50 μg/ml)
13 (LCQERLSQRCGV) [Clone 13] | + (O.D. from 0.15 to 0.5) | + (O.D. from 0.15 to 0.5) | –
AQAFQTPVHSDPAKC (also: conjugated to KLH) [GNA 33, control peptide, a mimetic of PorA P1.2, conjugated to KLH, reference compound] | – | – | mAb Reactivity JAR 4 (anti-fHbp mAb JAR 4): − (no detectable binding at 50 μg/ml); mAb Reactivity P1.2 (anti-PorA P1.2 mAb): + (50% of maximal binding at 1-10 μg/ml)
TKDDPLKQHLALSAGDPAKC (also: conjugated to KLH) [JAR 4 Scrambled, scrambled native fHbp peptide, negative control, conjugated to KLH, reference compound] | – | – | mAb Reactivity JAR 5 (anti-fHbp JAR 5): − (no detectable binding at 50 μg/ml); mAb Reactivity JAR 4 (anti-fHbp mAb JAR 4): − (no detectable binding at 50 μg/ml); mAb Reactivity P1.2 (anti-PorA P1.2 mAb): − (no detectable binding at 50 μg/ml)
HFVQQTPQSQDPAKC (also: conjugated to KLH) [PorA P1.2, control peptide derived from loop 4 of PorA VR2, strain 2996, conjugated to KLH, reference compound] | – | – | mAb Reactivity JAR 4 (anti-fHbp mAb JAR 4): − (no detectable binding at 50 μg/ml); mAb Reactivity P1.2 (anti-PorA P1.2 mAb): + (50% of maximal binding at 1-10 μg/ml)
AEGEFHDHKTQLDPDPAKC (also: conjugated to KLH) [JAR 4 Phage 1, synthetic peptide conjugated to keyhole limpet hemocyanin (KLH)] | – | – | mAb Reactivity JAR 5 (anti-fHbp JAR 5): − (no detectable binding at 50 μg/ml); binding to control mAb anti-fHbp JAR 5 (anti-fHbp JAR 5): no detectable binding; mAb Reactivity JAR 4 (anti-fHbp mAb JAR 4): ++ (50% of maximal binding at < 1 μg/ml); reactivity with JAR 4 by ELISA (anti-fHbp mAb JAR 4): reacted; mAb Reactivity P1.2 (anti-PorA P1.2 mAb): − (no detectable binding at 50 μg/ml)
15 (RCQVQVMVLCAL) [Clone 15] | + (O.D. from 0.15 to 0.5) | + (O.D. from 0.15 to 0.5) | –
14 (WVLCGQGCGGTA) [Clone 14] | + (O.D. from 0.15 to 0.5) | + (O.D. from 0.15 to 0.5) | –
12 (KDHRHMLWPEES) [Clone 12] | + (O.D. from 0.15 to 0.5) | + (O.D. from 0.15 to 0.5) | –
3 (HDHKTQLDP) [Clone 3] | ++++ (O.D. from 2 to 3.5) | ++++ (O.D. from 2 to 3.5) | –
AEGEFHDHKLEGTEDPAKC (also: conjugated to KLH) [JAR 4 Phage 3, synthetic peptide conjugated to keyhole limpet hemocyanin (KLH)] | – | – | mAb Reactivity JAR 5 (anti-fHbp JAR 5): − (no detectable binding at 50 μg/ml); binding to control mAb anti-fHbp JAR 5 (anti-fHbp JAR 5): no detectable binding; mAb Reactivity JAR 4 (anti-fHbp mAb JAR 4): + (50% of maximal binding at 1-10 μg/ml); reactivity with JAR 4 by ELISA (anti-fHbp mAb JAR 4): reacted
18 (VGWCGFERCSSA) [Clone 18] | + (O.D. from 0.15 to 0.5) | + (O.D. from 0.15 to 0.5) | –
8 (HDHRIWPLDVTA) [Clone 8] | + (O.D. from 0.15 to 0.5) | ++ (O.D. from 0.5 to 1) | –
D25A: recombinant v.1 fHbp (gene from MC58) with residue 25 changed to alanine (protein) CSSGGGGVAADIGAGLADALTAPLAHKDKGLQSLTLDQSVRKNEKLKLAAQGAEKTYGNGDSLNTGKLKNDKVSRFDFIRQIEVDGQLITLESGEFQVYKQSHSALTAFQTEQIQDSEHSGKMVAKRQFRIGDIAGEHTSFDKLPEGGRATYRGTAFGSDDAGGKLTYTIDFAAKQGNGKIEHLKSPELNVDLAAADIKPDGKRHAVISGSVLYNQAEKGSYSLGIFGGKAQEVAGSAEVKTVNGIRHIGLAAKQHHHHHH | – | – | decrease in JAR 4-reactivity compared with wild-type recombinant fHbp (JAR 4): approximately 1000 fold
H26A: recombinant v.1 fHbp (gene from MC58) with residue 26 changed to alanine (protein) CSSGGGGVAADIGAGLADALTAPLDAKDKGLQSLTLDQSVRKNEKLKLAAQGAEKTYGNGDSLNTGKLKNDKVSRFDFIRQIEVDGQLITLESGEFQVYKQSHSALTAFQTEQIQDSEHSGKMVAKRQFRIGDIAGEHTSFDKLPEGGRATYRGTAFGSDDAGGKLTYTIDFAAKQGNGKIEHLKSPELNVDLAAADIKPDGKRHAVISGSVLYNQAEKGSYSLGIFGGKAQEVAGSAEVKTVNGIRHIGLAAKQHHHHHH | – | – | decrease in JAR 4-reactivity compared with wild-type recombinant fHbp (JAR 4): approximately 10 fold

Reference: patent US8470340B2, “Peptides presenting an epitope of a domain of factor H binding protein and methods of use” (priority 2008, dated 2013)
